Source: patent publication US20180280480A1, “COMPOSITIONS AND PEPTIDES HAVING DUAL GLP-1R AND GLP-2R AGONIST ACTIVITY” (priority 2014, published 2018)
Like-named read-outs stand apart in the source and are kept apart here. One block for each molecule: values may come before it. Ends that are not written are not given here.

Tests used:
C57BL/6J mice [1] = test system: C57BL/6J mice
C57BL/6J mice [2] = test: Gut proliferation in C57BL/6J mice, PoC study 2 (liraglutide and teduglutide); assay type: in vivo
Source text: (§1) Forty (40, n=10, 4 groups) male C57BL/6J mice obtained from Taconic, Denmark, were used. At the time of the experiment, the mice had reached an age of 9-10 weeks. The mice were acclimatized for one week in their new environment and offered regular chow diet (Altromin 1324, Brogaarden A/S, Denmark) and domestic quality tap water. Animals were housed two per cage during the study, in a light-, temperature-, and humidity-controlled room (12-hour light: 12-hour dark cycle, lights on/off at 4 AM/4 PM hour; 22±1° C.; 50±10% relative humidity). […] Animals were uniquely identified with implantable microchips (Pet ID Microchip, E-vet) in all mice upon arrival. Animals were identified using the WS-2 weight station (MBrose ApS, Faaborg, Denmark) connected to a laptop running the HM02Lab software (Ellegaard Systems, Faaborg, Denmark). The HM02Lab software matches the body weight with ID and calculates the dose directly based on the body weight. All mice were handled for 3 days prior to the experiment to acclimatize the animals to handling and injections.

C57BL/6J mice [3] = test: GLP1R-GLP2R dual agonist compound study: oral glucose tolerance test; assay type: in vivo; details: Day 7; 3.0 mg/kg BID SC; glucose 2 g/kg oral; mean ± S.E.M.
Method: On day 7, an oral glucose tolerance test (OGTT) was performed. Animals were mildly fasted as all food was removed 4 hours prior to the oral glucose load. Vehicle (SC) and compounds were administered subcutaneously (SC) 2 hours prior to the OGTT. At t=0 mice received an oral glucose load (2 g/kg; 4 ml/kg; 500 mg/ml, Fresenius Kabi, Sweden). Glucose was given as gavage via a gastrically-placed tube connected to a syringe ensuring accurate dosing. Blood glucose was measured from tail vein blood before glucose (at t=−120 and 0 min, baseline) and after glucose administration at t=15, 30, 60 and 120 min. Blood samples (tail vein) was collected into 10 μl heparinized glass capillary tubes and immediately suspended in buffer (0.5 ml of glucose/lactate system solution (EKF-diagnostics, Germany) and analyzed for glucose on the test day using a BIOSEN c-Line glucose meter (EKF-diagnostics, Germany) according to manufacturer's instructions. Results from the OGTT are listed below in Table 11.

GLP-2R = molecular target: T1, GLP-2R (Homo sapiens, UniProt O95838); test: GLP2 receptor efficacy assay (in vitro functional screen, Euroscreen or DiscoveRx); details: EC50 of native GLP-2 / EC50 of compound
T1 sequence (O95838 1-553): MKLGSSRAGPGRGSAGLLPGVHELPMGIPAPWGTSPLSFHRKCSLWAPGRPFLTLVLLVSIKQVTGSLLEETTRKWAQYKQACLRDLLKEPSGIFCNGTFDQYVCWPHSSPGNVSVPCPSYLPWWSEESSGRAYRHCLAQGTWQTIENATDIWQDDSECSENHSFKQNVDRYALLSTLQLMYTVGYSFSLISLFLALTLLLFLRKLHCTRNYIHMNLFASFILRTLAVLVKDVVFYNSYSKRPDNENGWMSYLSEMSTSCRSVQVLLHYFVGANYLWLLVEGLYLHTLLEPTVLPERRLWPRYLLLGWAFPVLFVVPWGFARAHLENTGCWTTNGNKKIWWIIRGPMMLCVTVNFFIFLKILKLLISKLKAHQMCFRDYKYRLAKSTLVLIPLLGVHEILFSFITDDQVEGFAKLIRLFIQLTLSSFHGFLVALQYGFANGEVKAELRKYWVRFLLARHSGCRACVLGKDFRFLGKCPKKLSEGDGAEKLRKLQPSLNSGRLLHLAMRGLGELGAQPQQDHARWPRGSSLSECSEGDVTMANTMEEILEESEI

C57BL/6J mice [4] = test: GLP1R-GLP2R dual agonist compound study: gut wet weight; assay type: in vivo; details: Day 8; 3.0 mg/kg BID SC; mean ± S.E.M.
Source text: On study day 8, the mice were terminated and the GI tract was removed for determination of the gut wet weight. The gut wet weight results are listed below in Table 12.

C57BL/6J mice [5] = test: GLP1R-GLP2R dual agonist compound study: cumulative food intake; assay type: in vivo; details: Day 0-7; 3.0 mg/kg BID SC; mean ± S.E.M.
Source text: as §1

human GLP-1 receptor [6] = molecular target: T2, human GLP-1 receptor (human, UniProt P43220 24-463, limits assumed); test: cell-based or functional assay
human GLP-2 receptor [7] = molecular target: T3, human GLP-2 receptor (human, UniProt O95838 1-553, limits assumed); test: cell-based or functional assay
T3 sequence (looked up): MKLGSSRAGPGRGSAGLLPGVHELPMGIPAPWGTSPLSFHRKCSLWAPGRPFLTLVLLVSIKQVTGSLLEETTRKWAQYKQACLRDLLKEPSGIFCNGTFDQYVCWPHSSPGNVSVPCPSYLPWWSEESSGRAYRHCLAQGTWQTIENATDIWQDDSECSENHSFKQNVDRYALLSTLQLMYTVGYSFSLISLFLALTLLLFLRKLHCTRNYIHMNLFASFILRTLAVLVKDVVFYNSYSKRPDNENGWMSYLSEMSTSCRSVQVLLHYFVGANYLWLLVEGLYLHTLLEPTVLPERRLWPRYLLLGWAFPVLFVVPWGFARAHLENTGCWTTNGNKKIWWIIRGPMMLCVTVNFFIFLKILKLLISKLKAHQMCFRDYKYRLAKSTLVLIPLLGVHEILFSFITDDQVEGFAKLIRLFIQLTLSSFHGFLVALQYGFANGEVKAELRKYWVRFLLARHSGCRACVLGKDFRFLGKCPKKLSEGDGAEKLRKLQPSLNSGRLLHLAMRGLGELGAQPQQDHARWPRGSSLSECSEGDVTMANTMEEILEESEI

human GLP-1 receptor [8] = molecular target: T2, human GLP-1 receptor; test: cell-based or functional assay; remark: listed apart in the source
human GLP-2 receptor [9] = molecular target: T3, human GLP-2 receptor; test: cell-based or functional assay; remark: listed apart in the source
[10] = Day 8, BID SC, liraglutide 0.2 mg/kg, teduglutide 1.0 mg/kg, alone or combined, mean ± S.E.M.

Molecule: CC[C@H](C)[C@H](NC(=O)[C@H](Cc1ccccc1)NC(=O)[C@H](CC(=O)O)NC(=O)[C@H](CCCNC(=N)N)NC(=O)[C@H](C)NC(=O)[C@H](C)NC(=O)[C@H](CC(C)C)NC(=O)[C@H](CC(N)=O)NC(=O)[C@H](CC(=O)O)NC(=O)[C@H](CC(C)C)NC(=O)[C@@H](NC(=O)[C@@H](NC(=O)[C@H](CC(N)=O)NC(=O)[C@H](CCSC)NC(=O)[C@H](CCC(=O)O)NC(=O)[C@H](CC(=O)O)NC(=O)[C@H](CO)NC(=O)[C@H](Cc1ccccc1)NC(=O)[C@H](CO)NC(=O)CNC(=O)[C@H](CC(=O)O)NC(=O)[C@H](C)NC(=O)[C@@H](N)Cc1c[nH]cn1)[C@@H](C)O)[C@@H](C)CC)C(=O)N[C@@H](CC(N)=O)C(=O)N[C@@H](Cc1c[nH]c2ccccc12)C(=O)N[C@@H](CC(C)C)C(=O)N[C@H](C(=O)N[C@@H](CCC(N)=O)C(=O)N[C@H](C(=O)N[C@@H](CCCCN)C(=O)N[C@H](C(=O)N[C@H](C(=O)N[C@@H](CC(=O)O)C(=O)O)[C@@H](C)O)[C@@H](C)CC)[C@@H](C)O)[C@@H](C)CC [GLP-2]
- Total intestine weight (C57BL/6J mice [1]; Day 8, 3 mg/kg BID SC, female C57BL/6J mice, mean ± S.E.M.): 1256 ± 30.1 mg
- increase in intestinal weight compared to vehicle (C57BL/6J mice [1]; seven days of dosing, 3.0 mg/kg each BID SC): approx. 25%

- relative GLP-2 activity (GLP-2R): 1.0
Molecule: CC[C@H](C)[C@H](NC(=O)[C@H](Cc1ccccc1)NC(=O)[C@H](CC(=O)O)NC(=O)[C@H](CCCNC(=N)N)NC(=O)[C@H](C)NC(=O)[C@H](C)NC(=O)[C@H](CC(C)C)NC(=O)[C@H](CC(N)=O)NC(=O)[C@H](CC(=O)O)NC(=O)[C@H](CC(C)C)NC(=O)[C@@H](NC(=O)[C@@H](NC(=O)[C@H](CC(N)=O)NC(=O)[C@H](CCSC)NC(=O)[C@H](CCC(=O)O)NC(=O)[C@H](CC(=O)O)NC(=O)[C@H](CO)NC(=O)[C@H](Cc1ccccc1)NC(=O)[C@H](CO)NC(=O)CNC(=O)[C@H](CC(=O)O)NC(=O)CNC(=O)[C@@H](N)Cc1c[nH]cn1)[C@@H](C)O)[C@@H](C)CC)C(=O)N[C@@H](CC(N)=O)C(=O)N[C@@H](Cc1c[nH]c2ccccc12)C(=O)N[C@@H](CC(C)C)C(=O)N[C@H](C(=O)N[C@@H](CCC(N)=O)C(=O)N[C@H](C(=O)N[C@@H](CCCCN)C(=O)N[C@H](C(=O)N[C@H](C(=O)N[C@@H](CC(=O)O)C(=O)O)[C@@H](C)O)[C@@H](C)CC)[C@@H](C)O)[C@@H](C)CC [Teduglutide]
- Gut wet weight (C57BL/6J mice [2]; [10]): 2.6 ± 0.2 ^### g
- Large intestine length (C57BL/6J mice [2]; [10]): 5.1 ± 0.6 cm
- Large intestine weight (C57BL/6J mice [2]; [10]): 0.26 ± 0.03 g
- Small intestine length (C57BL/6J mice [2]; [10]): 22.9 ± 1.6 cm
- Small intestine weight (C57BL/6J mice [2]; [10]): 1.3 ± 0.2 g
- effect of single treatment on gut weight and length (C57BL/6J mice [2]; PoC study 2, Tables 5, 6, 8, 9): increases in gut wet weight (Table 5), small intestine weight (Table 6) and small intestine length (Table 8)
- Oral glucose tolerance test AUC, 0-120 min (C57BL/6J mice [3]): 890 ± 182 mmol·min/L
- Gut wet weight (C57BL/6J mice [4]): 3.0 ± 0.3 g
- Cumulative food intake (C57BL/6J mice [5]): 31.82 ± 6.52 g

- GLP-1R, EC50 (human GLP-1 receptor [6]): 0.026 nM
- GLP-2R, EC50 (human GLP-2 receptor [7]): > 1000 nM
- GLP-1R, EC50 (human GLP-1 receptor [8]): 0.004 nM
- GLP-2R, EC50 (human GLP-2 receptor [9]): > 100 nM
Molecule: HAEGTFTSDVSSYLEGQAAKEFIAWLVKG (ligand, ends and bridges not checked) [native human GLP-1]
